Test results as given in PubChem BioAssay AID651630 (Sanford-Burnham Center for Chemical Genomics, 2012).
Activity calls are given as the source filed them.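 The calls were made as follows: active = lipid-stain IC50 at or below a set limit, with nuclear-stain toxicity IC50 at least five times higher; inactive = the rest.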

What was measured:
DAPI = assay: TAG lipid buildup inhibition with viability readout – cell-based, panel, Nile Red and DAPI fluorescence, H9c2, dose response (AID 651630); settings: H9c2 cells, DAPI nuclear fluorescence (cytotoxicity counter-readout), oleic acid;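 also: cells exposed to compound overnight before fixation and staining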
TAG = assay: as above; settings: H9c2 cells, Nile Red TAG fluorescence, oleic acid

`Cc1cc(NC(=O)c2ccccc2F)n(-c2nc3ccccc3[nH]2)n1` was tested, and the IC50 cytotoxicity (DAPI nuclear signal decrease) (DAPI; mean of runs) was > 25 µM (inactive), the IC50 cytotoxicity (DAPI nuclear signal decrease) (DAPI; run 1) was > 25 µM and the IC50 cytotoxicity (DAPI nuclear signal decrease) (DAPI; run 2) was > 25 µM. For the same compound, the IC50 (TAG; mean of runs) was 16.8 µM (inactive), the IC50 (TAG; run 1) was 16.8 µM and the IC50 (TAG; run 2) was 16.9 µM.
With `COc1ccc(CNC(=O)c2ccc(N3CCC4(CC3)CC(c3ccc(Cl)cc3)=NO4)c(NC(=O)Cc3ccc(F)cc3)c2)cc1` the IC50 cytotoxicity (DAPI nuclear signal decrease) (DAPI; mean of runs) was > 25 µM (inactive), the IC50 cytotoxicity (DAPI nuclear signal decrease) (DAPI; run 1) was > 25 µM and the IC50 cytotoxicity (DAPI nuclear signal decrease) (DAPI; run 2) was > 25 µM. The IC50 (TAG; mean of runs) was > 25 µM (inactive), the IC50 (TAG; run 1) was > 25 µM and the IC50 (TAG; run 2) was > 25 µM.
In the case of `CC(=O)c1cccc(-c2ccc(CN3C(CC(C)C)C(=O)N(Cc4cn(CC5CCCCC5)nn4)CCS3(=O)=O)cc2)c1` (stereo unspecified), the IC50 cytotoxicity (DAPI nuclear signal decrease) (DAPI; mean of runs) is reported as > 25 µM (inactive), the IC50 cytotoxicity (DAPI nuclear signal decrease) (DAPI; run 1) is reported as > 25 µM and the IC50 cytotoxicity (DAPI nuclear signal decrease) (DAPI; run 2) is reported as > 25 µM. For the same compound, the IC50 (TAG; run 1) was > 25 µM and the IC50 (TAG; run 2) was 18.1 µM.
Compound `Cc1ccc(-c2nn(-c3ccccc3)cc2CSC(=N)N)cc1` has an IC50 cytotoxicity (DAPI nuclear signal decrease) (DAPI; mean of runs) of 21 µM, an IC50 cytotoxicity (DAPI nuclear signal decrease) (DAPI; run 1) of 21.1 µM and an IC50 cytotoxicity (DAPI nuclear signal decrease) (DAPI; run 2) of 20.9 µM. For the same compound, the IC50 (TAG; mean of runs) was 3.82 µM, the IC50 (TAG; run 1) was 3.92 µM and the IC50 (TAG; run 2) was 3.73 µM.
In the case of `c1ccc(-c2nc(N3CCOCC3)cc(N3CCOCC3)n2)cc1`, the IC50 cytotoxicity (DAPI nuclear signal decrease) (DAPI; mean of runs) is reported as > 25 µM (inactive), the IC50 cytotoxicity (DAPI nuclear signal decrease) (DAPI; run 1) is reported as > 25 µM and the IC50 cytotoxicity (DAPI nuclear signal decrease) (DAPI; run 2) is reported as > 25 µM. The IC50 (TAG; mean of runs) was 9.99 µM, the IC50 (TAG; run 1) was 5.81 µM and the IC50 (TAG; run 2) was 14.2 µM.
In the case of `COc1cccc(Cn2c3ccc(NC(=O)CCc4ccc(F)cc4)cc3c(=O)n2C)c1`, the IC50 cytotoxicity (DAPI nuclear signal decrease) (DAPI; mean of runs) is reported as > 25 µM (inactive), the IC50 cytotoxicity (DAPI nuclear signal decrease) (DAPI; run 1) is reported as > 25 µM and the IC50 cytotoxicity (DAPI nuclear signal decrease) (DAPI; run 2) is reported as > 25 µM. For the same compound, the IC50 (TAG; run 1) was 20.9 µM and the IC50 (TAG; run 2) was > 25 µM.
In the case of `COc1cc(NC(=O)c2cc([N+](=O)[O-])ccc2NC(=O)CN2CCN(c3ccccn3)CC2)cc(OC)c1`, the IC50 cytotoxicity (DAPI nuclear signal decrease) (DAPI; mean of runs) is reported as > 25 µM (inactive), the IC50 cytotoxicity (DAPI nuclear signal decrease) (DAPI; run 1) is reported as > 25 µM and the IC50 cytotoxicity (DAPI nuclear signal decrease) (DAPI; run 2) is reported as > 25 µM. It also gave an IC50 (TAG; mean of runs) of 12.6 µM, an IC50 (TAG; run 1) of 13.3 µM and an IC50 (TAG; run 2) of 11.9 µM.
With `COc1ccc(CC(N)c2csc(NC(=O)Nc3ccccc3C(C)C)n2)cc1` (stereo unspecified) the IC50 cytotoxicity (DAPI nuclear signal decrease) (DAPI; mean of runs) was 21.5 µM (inactive), the IC50 cytotoxicity (DAPI nuclear signal decrease) (DAPI; run 1) was 20.3 µM and the IC50 cytotoxicity (DAPI nuclear signal decrease) (DAPI; run 2) was 22.7 µM. For the same compound, the IC50 (TAG; mean of runs) was > 25 µM (inactive), the IC50 (TAG; run 1) was > 25 µM and the IC50 (TAG; run 2) was > 25 µM.
In the case of `CCCCCc1cc(=O)oc2c(C(CCN(CC)CC)c3cc(OC)c(OC)c(OC)c3)c(OC)cc(OC)c12` (stereo unspecified), the IC50 cytotoxicity (DAPI nuclear signal decrease) (DAPI; mean of runs) is reported as > 25 µM (inactive), the IC50 cytotoxicity (DAPI nuclear signal decrease) (DAPI; run 1) is reported as > 25 µM and the IC50 cytotoxicity (DAPI nuclear signal decrease) (DAPI; run 2) is reported as > 25 µM. For the same compound, the IC50 (TAG; mean of runs) was > 25 µM (inactive), the IC50 (TAG; run 1) was > 25 µM and the IC50 (TAG; run 2) was > 25 µM.
With `O=C(CSc1nc2ccc(Nc3nc(N4CCOCC4)nc(N4CCOCC4)n3)cc2s1)Nc1ccccc1Cl` the IC50 cytotoxicity (DAPI nuclear signal decrease) (DAPI; mean of runs) was > 25 µM (inactive), the IC50 cytotoxicity (DAPI nuclear signal decrease) (DAPI; run 1) was > 25 µM and the IC50 cytotoxicity (DAPI nuclear signal decrease) (DAPI; run 2) was > 25 µM. It also gave an IC50 (TAG; mean of runs) of 8.88 µM, an IC50 (TAG; run 1) of 7.69 µM and an IC50 (TAG; run 2) of 10.1 µM.
For `COc1ccc2[nH]c(C)c(CCNCc3cn(C)c4ccccc34)c2c1`, the IC50 cytotoxicity (DAPI nuclear signal decrease) (DAPI; mean of runs) was > 25 µM (inactive), the IC50 cytotoxicity (DAPI nuclear signal decrease) (DAPI; run 1) was > 25 µM and the IC50 cytotoxicity (DAPI nuclear signal decrease) (DAPI; run 2) was > 25 µM. The IC50 (TAG; mean of runs) was 10.7 µM, the IC50 (TAG; run 1) was 10.2 µM and the IC50 (TAG; run 2) was 11.2 µM.
In the case of `CC(CC(=O)Nc1ccc2c(c1)c(=O)n(C)n2-c1ccc2ccccc2c1)C(F)(F)F` (stereo unspecified), the IC50 cytotoxicity (DAPI nuclear signal decrease) (DAPI; mean of runs) is reported as > 25 µM (inactive), the IC50 cytotoxicity (DAPI nuclear signal decrease) (DAPI; run 1) is reported as > 25 µM and the IC50 cytotoxicity (DAPI nuclear signal decrease) (DAPI; run 2) is reported as > 25 µM. For the same compound, the IC50 (TAG; mean of runs) was > 25 µM (inactive), the IC50 (TAG; run 1) was > 25 µM and the IC50 (TAG; run 2) was > 25 µM.
`CCOC(=O)/C(=N\Nc1ccc(Cl)cc1)c1csc(Nc2ccccc2)n1` was tested, and the IC50 cytotoxicity (DAPI nuclear signal decrease) (DAPI; mean of runs) was 22.5 µM (inactive), the IC50 cytotoxicity (DAPI nuclear signal decrease) (DAPI; run 1) was 20.6 µM and the IC50 cytotoxicity (DAPI nuclear signal decrease) (DAPI; run 2) was 24.4 µM. It also gave an IC50 (TAG; mean of runs) of 6.51 µM, an IC50 (TAG; run 1) of 6.29 µM and an IC50 (TAG; run 2) of 6.72 µM.
